The values that follow come from US20220288207A1, “PHOTO INDUCED CONTROL OF PROTEIN DESTRUCTION” (Beth Israel Deaconess Medical Center, Inc., priority 2019, published 2022).

For one series, the system named is BRD2 and BRD3. The experiment in a line: In vivo ubiquitination assay of BRD2 and BRD3 by CRBN in HEK293T cells (Ni-NTA pull down). Format: cell-based, Human. The procedure:
(§1) Denatured in vivo ubiquitination assays were performed as described in H. Inuzuka et al., Cell 150 (2012): 179, hereby incorporated by reference in its entirety and specifically in relation to ubiquitination assays. Briefly, HEK293T cells were transfected with Flag-CRBN, His-ubiquitin and HA-IKZF1 or GFP-BRD2 or GFP-BRD3. 24 hours after transfection, pomalidomide, opto-pomalidomide, dBET1 or opto-dBET1 were added to the cell culture together with 10 μM MG132 for 12 hours and cells were harvested in denatured buffer A (6 M guanidine-HCl, pH 8.0, 0.1 M Na2HPO4/NaH2PO4, 10 mM imidazole). After sonication, the ubiquitinated proteins were purified by incubation with Ni-NTA matrices for 3 hours at room temperature. The pull-down products were washed sequentially twice in buffer A, twice in buffer ANTI mixture (buffer A: buffer TI=1:3) and once in buffer TI (25 mM Tris-HCl, pH 6.8, 20 mM imidazole). The poly-ubiquitinated proteins were separated by SDS-PAGE for immunoblot analysis.

The subject of a further series is BRD3/4. Nature of the series: BRD3/4 degradation, immunoblot of 293FT cells. It is filed as cell-based, Human. The procedure:
(§2) Human embryonic kidney 293T (HEK293T) cells and HEK293FT were maintained in Dulbecco's Modified Eagle's Medium (DMEM) containing 10% fetal bovine serum (FBS), 100 Units of penicillin and […] streptomycin. MM.1S, MT2, C4-2, NCI-H2228 and NCI-H3122 cells were cultured in RPMI1640 containing 10% fetal bovine serum (FBS), 100 Units of penicillin and 100 μg/ml streptomycin. 293FT^CRBN+/+, 293FT^CRBN+/+ , MM.1S^CRBN+/+ and MM.1S^CRBN−/− cells were provided Dr. William G. Kaelin (Dana-Farber Cancer Institute). For UVA irradiation, cells were pretreated with opto-PROTACs for 2-4 hours, and then subjected to UVA irradiation for indicated durations.
(§3) Cells were lysed in EBC lysis buffer (50 mM Tris pH 7.5, 120 mM NaCl, 0.5% NP-40), supplemented with protease inhibitors (cOmplete Mini, Roche) and phosphatase inhibitors (phosphatase inhibitor cocktail set I and II, Calbiochem). The protein concentrations of the lysates were measured using the Bio-Rad protein assay reagent on a Beckman Coulter DU-800 spectrophotometer. The lysates were then resolved by sodium dodecylsulfate-polyacrylamide gel ectrophoresis (SDS-PAGE) and immunoblotted with indicated antibodies. For immunoprecipitation, 1 mg lysates were incubated with the appropriate sepharose beads for 4 h at 4° C. Immuno-complexes were washed four times with NETN lysis buffer (20 mM Tris, pH 8.0, 100 mM NaCl, 1 mM EDTA and 0.5% NP-40) before being resolved by SDS-PAGE and immunoblotted with indicated antibodies.

For a further series, the system named is HEK293FT cells. Nature of the series: CCK-8 cell viability assay, HEK293FT cells. Format: cell-based, Human. As for the experimental part:
as §2
(§4) Cell in 96-well plates were incubated with 10 ul/well of CCK-8 solution and incubated for 2 hours, followed by the measurement of optical density using a microplate reader with a 450 nm filter (O.D. 450).

The subject of the next series is C4-2 cells. Nature of the series: CCK-8 cell viability assay, C4-2 cells. Format: cell-based. As for the experimental part: as §2, §4
(In general: Tetrazolium dyes change colour on reduction, which living cells bring about.)

Series [1] in a line: Uncaging (photolysis) by UVA irradiation in vitro, UV-VIS absorption / UPLC-MS analysis. Format: physicochemical. As to conditions: 1 mM, UVA 365 nm, time course. As for the experimental part: HPLC spectra were acquired using an Agilent 1200 Series system with DAD detector for all the intermediates and Opto-PROTACs below. Chromatography was performed on a 2.1×150 mm Zorbax 300SB-C18 5 μm column with water containing 0.1% formic acid as solvent A and acetonitrile containing 0.1% formic acid as solvent B at a flow rate of 0.4 ml/min. The gradient program was as follows: 1% B (0-1 min), 1-99% B (1-4 min), and 99% B (4-8 min). High-resolution mass spectra (FIRMS) data were acquired in positive ion mode using an Agilent G1969A API-TOF with an electrospray ionization (ESI) source. Nuclear Magnetic Resonance (NMR) spectra were acquired on a Bruker DRX-600 spectrometer with 600 MHz for proton (^1H NMR) and 151 MHz for carbon (^13C NMR); chemical shifts are reported in (δ). Preparative HPLC was performed on Agilent Prep 1200 series with UV detector set to 254 nm. Samples were injected onto a Phenomenex Luna 250×30 mm, 5 μm, C18 column at room temperature. The flow rate was 40 ml/min. A linear gradient was used with 10% of acetonitrile (A) in H2O (with 0.1% TFA) (B) to 100% of acetonitrile (A). HPLC was used to establish the purity of target compounds. All final compounds had >95% purity using the HPLC methods described above.
(§5) UV-Vis spectrometry was performed on a NanoDrop-2000 UV-Visible Spectrophotometer. Pomalidomide, opto-pomalidomide, dBET1, opto-dBET1, dALK and opto-dALK were dissolved in DMSO and diluted to indicated concentration, followed by UVA irradiation for indicated duration of time. Then the samples were subjected to UV-Vis spectrometry analysis. Pomalidomide and opto-pomalidomide mixture solutions were made with the indicated ratio. Absorption values at 364 nm were measured to draw standard curve. dBET1 and opto-dBET1 mixture solution were made with the indicated ratios. Absorption values at 340 nm were measured to draw standard curve. dALK and opto-dALK mixture solution were made with indicated ratio. Absorption values at 370 nm were measured to draw standard curve.

The subject of the next series is NCI-H2228 cells. Nature of the series: CCK-8 cell viability assay, NCI-H2228 cells. Format: cell-based. As for the experimental part: as §2, §4
In another series the test system is NCI-H3122 cells. The experiment in a line: CCK-8 cell viability assay, NCI-H3122 cells. Format: cell-based. As for the experimental part: as §2, §4
Series [2] can be described thus: UV-VIS absorption spectrum. It is filed as physicochemical. As to conditions: in DMSO. As for the experimental part:
as §5

A further series deals with T1, CRBN and IKZF1 (Homo sapiens, UniProt Q13422+Q96SW2).
T1 construct: expressed in transfected cells; host or cells: HEK293T
T1 sequence (Q96SW2 whole entry): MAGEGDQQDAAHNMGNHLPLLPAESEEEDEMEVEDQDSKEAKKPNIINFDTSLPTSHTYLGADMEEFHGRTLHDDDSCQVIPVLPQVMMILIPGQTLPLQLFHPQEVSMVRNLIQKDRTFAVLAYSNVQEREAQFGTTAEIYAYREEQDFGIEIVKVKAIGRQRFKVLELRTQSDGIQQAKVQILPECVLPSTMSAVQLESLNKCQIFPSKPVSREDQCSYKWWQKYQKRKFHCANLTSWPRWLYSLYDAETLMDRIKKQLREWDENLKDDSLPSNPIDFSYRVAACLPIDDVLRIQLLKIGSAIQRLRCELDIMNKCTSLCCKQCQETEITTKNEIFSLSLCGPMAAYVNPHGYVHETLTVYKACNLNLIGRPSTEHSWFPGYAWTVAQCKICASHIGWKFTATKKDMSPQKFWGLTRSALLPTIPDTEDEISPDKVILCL
T1 sequence (Q13422 whole entry): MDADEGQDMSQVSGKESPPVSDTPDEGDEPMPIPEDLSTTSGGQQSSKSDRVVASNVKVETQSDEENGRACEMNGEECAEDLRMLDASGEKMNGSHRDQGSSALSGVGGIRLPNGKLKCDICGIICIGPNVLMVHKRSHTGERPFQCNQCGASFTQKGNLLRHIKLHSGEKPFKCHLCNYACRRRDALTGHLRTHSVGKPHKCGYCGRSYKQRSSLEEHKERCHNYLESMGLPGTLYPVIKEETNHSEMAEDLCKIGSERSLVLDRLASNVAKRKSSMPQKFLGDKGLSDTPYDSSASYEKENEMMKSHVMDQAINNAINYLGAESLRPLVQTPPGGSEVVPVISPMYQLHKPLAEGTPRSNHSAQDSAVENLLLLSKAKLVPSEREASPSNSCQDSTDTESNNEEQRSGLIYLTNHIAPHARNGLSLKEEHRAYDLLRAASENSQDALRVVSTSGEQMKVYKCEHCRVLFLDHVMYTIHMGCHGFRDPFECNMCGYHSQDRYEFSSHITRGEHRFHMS
T1 sequence (Q16531 whole entry partner): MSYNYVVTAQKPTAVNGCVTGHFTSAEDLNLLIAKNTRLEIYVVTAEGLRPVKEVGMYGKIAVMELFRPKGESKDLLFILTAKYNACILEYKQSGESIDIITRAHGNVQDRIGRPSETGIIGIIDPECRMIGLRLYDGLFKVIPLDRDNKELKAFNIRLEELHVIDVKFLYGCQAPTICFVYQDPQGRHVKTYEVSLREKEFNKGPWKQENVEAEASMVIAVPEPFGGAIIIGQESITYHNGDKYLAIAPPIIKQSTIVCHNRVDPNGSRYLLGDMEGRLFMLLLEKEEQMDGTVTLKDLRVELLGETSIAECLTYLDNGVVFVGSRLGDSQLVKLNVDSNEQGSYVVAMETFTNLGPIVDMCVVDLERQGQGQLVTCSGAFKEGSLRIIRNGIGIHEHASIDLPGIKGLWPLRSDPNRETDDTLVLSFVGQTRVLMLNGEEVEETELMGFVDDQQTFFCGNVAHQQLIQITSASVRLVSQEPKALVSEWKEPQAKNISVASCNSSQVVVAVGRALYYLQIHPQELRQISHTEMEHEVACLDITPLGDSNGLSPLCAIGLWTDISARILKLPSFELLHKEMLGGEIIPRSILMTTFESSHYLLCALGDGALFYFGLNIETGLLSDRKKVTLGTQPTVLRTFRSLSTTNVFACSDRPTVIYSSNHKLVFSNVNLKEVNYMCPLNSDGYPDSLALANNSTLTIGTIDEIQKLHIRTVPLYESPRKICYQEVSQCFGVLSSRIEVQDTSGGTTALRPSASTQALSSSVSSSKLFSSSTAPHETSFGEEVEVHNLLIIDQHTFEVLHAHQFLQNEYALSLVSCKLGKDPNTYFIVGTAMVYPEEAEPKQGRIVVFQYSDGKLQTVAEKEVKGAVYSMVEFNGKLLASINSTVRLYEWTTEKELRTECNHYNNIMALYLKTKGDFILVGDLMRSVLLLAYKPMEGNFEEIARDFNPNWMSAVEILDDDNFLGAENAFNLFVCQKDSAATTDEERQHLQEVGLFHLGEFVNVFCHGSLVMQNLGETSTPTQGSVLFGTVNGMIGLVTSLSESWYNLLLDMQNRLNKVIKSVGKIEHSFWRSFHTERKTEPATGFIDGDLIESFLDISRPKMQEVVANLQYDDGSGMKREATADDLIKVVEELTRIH
Nature of the series: CRBN-IKZF1 interaction, Flag-IP and immunoblot in HEK293T cells. Format: cell-based. As to conditions: without UVA irradiation, 10 μM MG132 12 hours. As for the experimental part:
(§6) MM.1S, MT2, C4-2, NCI-H2228 and NCI-H3122 cells were cultured in RPMI1640 containing 10% fetal bovine serum (FBS), 100 Units of penicillin and 100 μg/ml streptomycin. […] For UVA irradiation, cells were pretreated with opto-PROTACs for 2-4 hours, and then subjected to UVA irradiation for indicated durations.
as §3
In general terms: Immunoblotting shows a protein as a band on a membrane.

The test system of another series is IKZF1/3. Nature of the series: IKZF1/3 degradation, immunoblot of MM1S cells. As to conditions: MM1S-CRBN+/+ vs. MM1S-CRBN−/− cells, 12 hours, without UVA irradiation; opto-drug up to 10-fold excess. It is filed as cell-based. The procedure: as §6, §3
The next series concerns MM1S cells. The experiment in a line: CCK-8 cell viability assay, MM1S cells. It is filed as cell-based. The following applies: MM1S-CRBN+/+ and MM1S-CRBN−/− cells, 72 hours, without UVA irradiation. As for the experimental part: as §2, §4
The target in a further series is IKZF1 (Homo sapiens, UniProt Q13422+Q96SW2). Nature of the series: In vivo ubiquitination assay of IKZF1 by CRBN in HEK293T cells (Ni-NTA pull down). Format: cell-based. Details: expressed in transfected cells; host or cells: HEK293T. As to conditions: without UVA irradiation. The procedure: as §1, with “Briefly,” for “Denatured in vivo ubiquitination assays were performed as described in H. Inuzuka et al., Cell 150 (2012): 179, hereby incorporated by reference in its entirety and specifically in relation to ubiquitination assays. Briefly,”
IKZF1, sequence (Q13422 whole entry): as the sequence (Q13422 whole entry) above
IKZF1, sequence (Q96SW2 whole entry): as the sequence (Q96SW2 whole entry) above
IKZF1, sequence (Q16531 whole entry partner): as the sequence (Q16531 whole entry partner) above

Where [3] appears, read: 293FT-CRBN+/+ vs. 293FT-CRBN−/− cells, 12 hours, without UVA irradiation.
[4] abbreviates: HEK293FT (293FT-CRBN+/+ and CRBN−/−) cells, without UVA irradiation.
[5] abbreviates: 72 hours, without UVA irradiation.
Setting [6] is: UVA irradiation (365 nm) 15 minutes.

The structures appear in SMILES notation. Entries after “also recorded” stand apart in the source; their conditions may differ.

On to `Cc1sc2c(c1C)C(c1ccc(Cl)cc1)=N[C@@H](CC(=O)NCCCCNC(=O)COc1cccc3c1C(=O)N(C1CCC(=O)NC1=O)C3=O)c1nnc(C)n1-2` (some centres unmarked) [dBET1, reference compound], for which the “ubiquitination of BRD2 and BRD3 by CRBN” value in the series on BRD2 and BRD3 (without UVA irradiation) is “function as a molecular linker between a protein targeting moiety that recruits bromodomain family members (BRD2/3) (JQ1 derived) and CRBN-mediated ubiquitination”. Besides, the “degradation of BRD3/4” value in the series on BRD3/4 (setting [3]) is reported as “degraded BRD 3/4 in a CRBN-dependent manner”. For the same compound, the “cell proliferation (CCK-8)” value in the series with HEK293FT cells (setting [4]) is “inhibited cell proliferation in a dose-dependent manner; also recorded: inhibits cell proliferation in 293FT-CRBN^+/+ but not 293FT-CRBN^−/− cells”; with C4-2 cells (without UVA irradiation) it was “inhibited cell proliferation in a dose-dependent manner”.

For `COc1cc(COC(=O)N2C(=O)CCC(N3C(=O)c4cccc(NCCNC(=O)CN5CCC(c6cc(OC(C)C)c(Nc7ncc(Cl)c(Nc8ccccc8S(=O)(=O)C(C)C)n7)cc6C)CC5)c4C3=O)C2=O)c([N+](=O)[O-])cc1OC` (centres unmarked) [opto-dALK], the “uncaging (photolysis) by UVA irradiation in vitro” value in [1] is reported as “efficiently uncaged by UVA irradiation in vitro”. Besides, the “cell proliferation (CCK-8)” value is “inefficient in inhibiting the proliferation of H2228 (C) or NCI-3122 (D)” with NCI-H2228 cells (setting [5]), “required prior uncaging by UVA irradiation; also recorded: inhibits H2228 (E) or NCI-3122 (F) cell proliferation in a dose-dependent manner” with NCI-H2228 cells (setting [6]), “inefficient in inhibiting the proliferation of H2228 (C) or NCI-3122 (D)” in the series with NCI-H3122 cells (setting [5]) and “required prior uncaging by UVA irradiation; also recorded: inhibits H2228 (E) or NCI-3122 (F) cell proliferation in a dose-dependent manner” with NCI-H3122 cells (setting [6]).

For `COc1cc(COC(=O)N2C(=O)CCC(N3C(=O)c4cccc(OCC(=O)NCCCCNC(=O)C[C@@H]5N=C(c6ccc(Cl)cc6)c6c(sc(C)c6C)-n6c(C)nnc65)c4C3=O)C2=O)c([N+](=O)[O-])cc1OC` (some centres unmarked) [opto-dBET1], the “uncaging (photolysis) by UVA irradiation in vitro” value in series [1] is “efficiently uncaged by UVA irradiation in vitro”. Further, the “ubiquitination of BRD2 and BRD3 by CRBN” value was “regained its ability to promote ubiquitination of BRDs in cells” in the series on BRD2 and BRD3 (UVA irradiation (365 nm) 15 min); “incapable of guiding the ubiquitination of BRD2 and BRD3” in the series with BRD2 and BRD3 (without UVA irradiation). Further, the “degradation of BRD3/4” value in the series on BRD3/4 (setting [3]) was “largely inert and incapable of degrading BRD3/4”; in the series with BRD3/4 (HEK293FT cells, UVA irradiation (365 nm) 5 or 15 minutes), “leading to the degradation of BRD3/4”. Besides, the “cell proliferation (CCK-8)” value was “relatively less toxic; also recorded: did not inhibit cell proliferation in 293FT-CRBN^+/+ and 293FT-CRBN^−/− cells” in the series with HEK293FT cells (setting [4]); “could be activated by UVA irradiation to suppress cell proliferation; also recorded: inhibits HEK293FT (J) and C4-2 (K) cell proliferation in a dose-dependent manner” in the series with HEK293FT cells (HEK293FT cells, UVA irradiation (365 nm) 15 minutes); “could be activated by UVA irradiation to suppress cell proliferation; also recorded: inhibits HEK293FT (J) and C4-2 (K) cell proliferation in a dose-dependent manner” in the series with C4-2 cells (setting [6]); “relatively less toxic” with C4-2 cells (without UVA irradiation).

For `Nc1cccc2c1C(=O)N(C1CCC(=O)NC1=O)C2=O` (centres unmarked) [pomalidomide, reference compound], the “maximum in absorption of UV-VIS absorption spectrum” value in series [2] worked out at 390 nm. Moreover, the “interaction between CRBN and IKZF1” value at CRBN and IKZF1 was “bound both CRBN and IKZF1/3”. Further, the “degradation of IKZF1/3” value with IKZF1/3 was “induced IKZF1/3 degradation in a CRBN-dependent manner”. In addition, the “cell proliferation (CCK-8)” value in the series with MM1S cells was “reduces MM1S cell proliferation in a CRBN-dependent manner”. Besides, the “ubiquitination of IKZF1 by CRBN” value at IKZF1 is given as “subsequently transfer the ubiquitin chain onto the target proteins, IKZFs”.
